In patent publication US12496290B2, “Method and compounds for treating or preventing autoimmune disorders or immune responses modulated by the expression of IDO1” (The Trustees of Princeton University, priority 2019, dated 2025):

Key:
IDO1 = IDO1 (Homo sapiens, UniProt P14902); test: IDO1 activity assay, N-formylkynurenine absorbance at 321 nm; assay type: biochemical
Procedure: FIG. 6 reflects a system involving IDO1 (50 nM), 0.1 mM L-tryptophan, and 5 mM glutathione in 100 mM sodium phosphate, pH 7.0 with <1 μM 6-chloro-5-fluoro-1H-indole-3-thiol.
The activity of the compounds was determined as follows. UV—vis spectra were recorded using a Hewlett-Packer 8453 diode array spectrophotometer. Activity assays were done at room temperature using 100 mM sodium phosphate, pH 7.0, with 500 nM IDO1 (ε404 nm=172 mM^−1 cm^−1) and 50 μM L-tryptophan. These were initiated by addition of IDO1, and activity was monitored at 321 nm where product N-formylkynurenine absorbs (ε321 nm=3750 M^−1 cm^−1).
The substituted indole compound was prepared daily in a 100 mM stock solution in dimethyl sulfoxide (DMSO), and this was serially diluted to maintain a consistent final concentration of 1% (v/v) DMSO in each assay. To maintain activity, 5 mM reduced glutathione was added to some of these from a 0.5 M stock solution. The substituted indole compound was generally tested from 100 nM to 10 μM. The ability of each compound to serve as a reducing substrate for IDO1 was fit using a Michaelis—Menten equation. […] Above 5 μM 3MI, there was a steep inhibitory effect.

ferric IDO1 = ferric IDO1 (Homo sapiens, UniProt P14902); test: Stopped-flow UV-vis spectrometry of binding to ferric IDO1
Procedure: FIG. 3 is a graph showing the second-order rate constant of 3MI binding to ferric IDO1 determined by stopped-flow spectrometry.
FIG. 4 is a graph showing stopped-flow UV—vis spectrometry of 3MI (30 μM) binding to IDO1 (1.4 μM) over 0.2 s.
3-Mercaptoindole (3MI) was seen to bind to IDO1 with a fast on-rate of 1.7×10^6 M^−1 s^−1 under pseudo-first-order conditions (See FIG. 3), producing a UV—vis spectrum (see FIG. 4) that has a Soret at 424 nm, a lower peak at 321 nm, and broad q-bands at 537 nm and a shoulder at about 575 nm. […] Note that although 3MI is referred to here, similar results can be seen with other substituted indole compounds disclosed herein.
Using 3MI, there was an initial burst of IDO1 activity, which leveled off after 500 s, well before substrate tryptophan was consumed (FIG. 2, 202). Reduced glutathione was added to the activity assay solutions at nearly cellular concentrations (5 mM) to reduce any oxidized 3MI-disulfide products that may have formed, and this allowed for sustained 3MI-induced IDO1 activity (FIG. 2, 201).

ferric-superoxo IDO1 = ferric-superoxo IDO1 (Homo sapiens, UniProt P14902); test: Double-mixing stopped-flow spectrometry with ferric-superoxo IDO1; assay type: biochemical; details: lowest 3MI concentration useful for pseudo-first-order conditions; nearly within instrument mixing time
Procedure: The nature of substituted indole compound-inhibition at high concentrations (>5 μM) was examined further with ferric-superoxo IDO1, the active tryptophan-oxidizing species. Ferric-superoxo IDO1 was generated using double-mixing stopped-flow spectrometry by mixing IDO1 prereduced with 2 mM sodium dithionite into aerobic buffer for 0.5 s. This ferric superoxo species was then mixed in the second push with 3MI that had been maintained in the reduced state using 5 mM glutathione. 3MI readily reacted with ferric-superoxo IDO1 to form ferric IDO1 without any observable intermediates. This was shown by a fast shift from the ferric-superoxo complex (λmax 415 nm) to the ferric (λmax 404 nm) that was completed nearly within the mixing time of the instrument (<10 ms) even at the lowest concentration of 3MI useful for pseudo-first-order reaction conditions (where 3MI must be at a large excess over IDO1). Following this fast conversion to ferric IDO1, there was a slower shift to the ferric 3MI-bound complex as indicated by the Soret shifting to 424 nm (as in FIG. 4). To account for both reactions, these traces were fit using a double exponential expression.

myoglobin = test: Heme protein selectivity, stopped-flow UV-vis: myoglobin; assay type: biochemical; details: pseudo-first-order conditions
Procedure: (§1) Since hydrogen sulfide and polysulfides are known to react with other heme proteins, the selectivity of 3MI for IDO1 was examined by mixing the substituted indole compounds (such as 3MI) with several other heme proteins and observing their reactions using stopped-flow UV—vis spectrometry.
(§2) The substituted indole compounds had no effect on catalase even at 250 μM, whereas the substituted indole compounds did appear to reduce myoglobin and hemoglobin, producing their oxygen-bound forms. The substituted indole compound were also able to reduce ferric cytochrome c to its distinctive ferrous form. The second-order rate constants of these reactions were determined under pseudo-first-order conditions giving 6.6×10^3, 1.6×10^4, and 2.7×10^5 M^−1 s^−1 for myoglobin, hemoglobin, and cytochrome c, respectively. […] Unlike myoglobin and hemoglobin, the oxy-form of IDO1 was not observed due to the relatively slow reduction of IDO1 by 3MI.

hemoglobin = test: Heme protein selectivity, stopped-flow UV-vis: hemoglobin; assay type: biochemical; details: pseudo-first-order conditions
Procedure: as §1, §2

ferric cytochrome c = test: Heme protein selectivity, stopped-flow UV-vis: cytochrome c; assay type: biochemical; details: pseudo-first-order conditions
Procedure: as §1, §2

Sequence of IDO1 (P14902 whole entry): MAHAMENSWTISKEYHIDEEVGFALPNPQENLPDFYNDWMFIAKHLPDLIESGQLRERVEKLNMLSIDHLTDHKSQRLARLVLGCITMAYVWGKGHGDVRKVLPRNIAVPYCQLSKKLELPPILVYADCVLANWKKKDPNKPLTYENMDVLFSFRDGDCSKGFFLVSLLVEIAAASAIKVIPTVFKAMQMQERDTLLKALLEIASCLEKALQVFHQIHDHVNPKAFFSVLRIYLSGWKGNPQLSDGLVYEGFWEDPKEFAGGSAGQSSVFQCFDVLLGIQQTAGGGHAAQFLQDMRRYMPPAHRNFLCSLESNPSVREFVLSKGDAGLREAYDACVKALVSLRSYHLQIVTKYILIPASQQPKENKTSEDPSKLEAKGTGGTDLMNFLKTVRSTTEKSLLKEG
Sequence of ferric IDO1 (P14902 whole entry): as above
Sequence of ferric-superoxo IDO1 (P14902 whole entry): as above

SMILES: Sc1c[nH]c2ccccc12 [3MI, 3-Mercaptoindole]
- concentration above which there was a steep inhibitory effect on IDO1 activity (IDO1): Above 5 μM
- 3MI-induced IDO1 activity with glutathione (IDO1; 5 mM reduced glutathione added (FIG. 2, 201)): sustained
- time after which the initial burst of IDO1 activity leveled off (IDO1; 3MI without glutathione (FIG. 2, 202), before tryptophan was consumed): 500 s
- activation of IDO1 (IDO1; FIG. 2): inducing turnover even at nM concentrations
- Ki (IDO1; single exponential fit of the inhibitory region at higher concentrations, read-out: Ki app (apparent Ki at half-activity)): 8 ± 3 µM
- selectivity: IDO1 binding rate constant exceeding that of the cytochrome c reduction (ferric IDO1; IDO1 versus cytochrome c): an order of magnitude
- kon (ferric IDO1; pseudo-first-order conditions, stopped-flow, ferric IDO1, read-out: on-rate / second-order rate constant of binding to IDO1): 1.7e+06 M⁻¹ s⁻¹
- time to complete the shift from ferric-superoxo complex to ferric IDO1 (ferric-superoxo IDO1): < 10 ms
- second-order rate constant of reaction (reduction) with myoglobin (myoglobin): 6600 M⁻¹ s⁻¹
- second-order rate constant of reaction (reduction) with hemoglobin (hemoglobin): 16000 M⁻¹ s⁻¹
- second-order rate constant of reaction (reduction) with cytochrome c (ferric cytochrome c): 270000 M⁻¹ s⁻¹

SMILES: Fc1cc2c(S)c[nH]c2cc1Cl [6-chloro-5-fluoro-1H-indole-3-thiol]
- IDO1 activity, product N-formylkynurenine absorbance at 321 nm over time (FIG. 6) (IDO1; IDO1 50 nM, 0.1 mM L-tryptophan, 5 mM glutathione, 100 mM sodium phosphate pH 7.0, <1 μM compound, background subtracted): increase in absorbance
